Data set [1] relates to IFN-γ. Nature of the data set: IFN-γ levels in PBMC under LPS stimulation (ELISA). Particulars: for Percentage IFN-γ levels compared to 100% untreated cells under LPS stimulation: PBMC; for concentration of IFN-γ in LPS stimulated cells: text summary of Table 1, concentration not stated. Format: cell-based, human. Here is the method:
1) Isolation, Culture and Treatment of Peripheral Blood Mononuclear Cells (PBMC) Blood was collected in 6 ml vacutainers (green cap). Blood was processed within 2 h of collection. Materials used: Non-coagulated blood; FCS; RPMI-1640 media supplemented with L-Gln and P/S; PBS; sterile tips and pipettes; Sterile 15 ml Falcon; Sterile V-bottom 96-well plates with lids; Neubauer chamber; Trypan Blue solution; 70% IPA solution; Accuspin-Histopaque tubes (Sigma, A7054) Procedure: • 1. Dilute samples 1:1 in sterile PBS; • 2. Add 30 ml of diluted blood into an Accuspin-Histopaque tube (Sigma, A7054); • 3. Centrifuge at 800 rcf 15min at room temperature (RT); • 4. After centrifugation, the red blood cells will remain at the bottom below the frit. The monocytes (PBMC) will be present on a layer above the frit, with the plasma on top; • 5. Collect the PBMC layer with a pipette into a fresh 15 ml Falcon tube and top up to 15 ml of PBS; • 6. Centrifuge at 250 rcf 10 min at RT; • 7. Discard the supernatant, flick the pellet and add another 10 ml of PBS; • 8. Centrifuge at 250 rcf 10 min at RT; • 9. Repeat steps 7 and 8; • 10. […] Count cells and make a 4×10^6 cell/ml suspension in complete medium. Add 100 μl of cell suspension per well in a V-bottom 96-well plate. Then add 50 μl of stimulant or vehicle in complete media, and 50 μl of drug or vehicle in complete media. Incubate the cells for 24 h at 37° C. 5% CO2; • 12. After incubation, take 60 μl of cell supernatant to measure IFNγ and TNFα by ELISA (OptEIA human IFNγ, cat No. 555142 and human TNF, Cat No. 555212) following manufacturer's instructions (BD Biosciences); The two mitogens that the inventors used to stimulate lymphocytes, and therefore assess immune function, were lipopolysaccharide (LPS) and Concanavalin A (Con A). LPS acts on B cells but not T cells, whereas Con A acts on T cells but not B cells. The effects of two embodiments of the compound represented by formula I, i.e. dobutamine (referred to in the tables as BC1021) and ritodrine (BC1023), on the levels of IFN-γ and TNF-α were investigated in LPS and Con A stimulated assays. Peripheral Blood Mononuclear Cells (PMBC) were independently administered with each mitogen, LPS or Con A, and then treated with either dobutamine or ritodrine. Control experiments were conducted in which no LPS or Con A was added, such that any effect on the levels of IFN-γ and TNF-α could be directly attributed to the presence of the test compound, dobutamine or ritodrine. The values in the Tables are expressed as the percentage value of the LPS only control. […] Standard deviation values (s.d.) are given underneath each value of expressed IFN-γ levels.

Data set [2] has as its system IFN-γ. Nature of the data set: IFN-γ levels in PBMC under Con A stimulation (ELISA). In kind it is cell-based, human. The following applies: for Percentage IFN-γ levels compared to 100% untreated cells under Con A stimulation: PBMC; for concentration of IFN-γ in Con A stimulated cells: text summary of Table 4, concentration not stated. Here is the method: 1) Isolation, Culture and Treatment of Peripheral Blood Mononuclear Cells (PBMC) Blood was collected in 6 ml vacutainers (green cap). Blood was processed within 2 h of collection. Materials used: Non-coagulated blood; FCS; RPMI-1640 media supplemented with L-Gln and P/S; PBS; sterile tips and pipettes; Sterile 15 ml Falcon; Sterile V-bottom 96-well plates with lids; Neubauer chamber; Trypan Blue solution; 70% IPA solution; Accuspin-Histopaque tubes (Sigma, A7054) Procedure: • 1. Dilute samples 1:1 in sterile PBS; • 2. Add 30 ml of diluted blood into an Accuspin-Histopaque tube (Sigma, A7054); • 3. Centrifuge at 800 rcf 15min at room temperature (RT); • 4. After centrifugation, the red blood cells will remain at the bottom below the frit. The monocytes (PBMC) will be present on a layer above the frit, with the plasma on top; • 5. Collect the PBMC layer with a pipette into a fresh 15 ml Falcon tube and top up to 15 ml of PBS; • 6. Centrifuge at 250 rcf 10 min at RT; • 7. Discard the supernatant, flick the pellet and add another 10 ml of PBS; • 8. Centrifuge at 250 rcf 10 min at RT; • 9. Repeat steps 7 and 8; • 10. […] Count cells and make a 4×10^6 cell/ml suspension in complete medium. Add 100 μl of cell suspension per well in a V-bottom 96-well plate. Then add 50 μl of stimulant or vehicle in complete media, and 50 μl of drug or vehicle in complete media. Incubate the cells for 24 h at 37° C. 5% CO2; • 12. After incubation, take 60 μl of cell supernatant to measure IFNγ and TNFα by ELISA (OptEIA human IFNγ, cat No. 555142 and human TNF, Cat No. 555212) following manufacturer's instructions (BD Biosciences); The two mitogens that the inventors used to stimulate lymphocytes, and therefore assess immune function, were lipopolysaccharide (LPS) and Concanavalin A (Con A). LPS acts on B cells but not T cells, whereas Con A acts on T cells but not B cells. The effects of two embodiments of the compound represented by formula I, i.e. dobutamine (referred to in the tables as BC1021) and ritodrine (BC1023), on the levels of IFN-γ and TNF-α were investigated in LPS and Con A stimulated assays. Peripheral Blood Mononuclear Cells (PMBC) were independently administered with each mitogen, LPS or Con A, and then treated with either dobutamine or ritodrine. Control experiments were conducted in which no LPS or Con A was added, such that any effect on the levels of IFN-γ and TNF-α could be directly attributed to the presence of the test compound, dobutamine or ritodrine.
For orientation: In an ELISA, binding on a coated surface is turned into a signal by an enzyme label.

The next data set relates to Con A-stimulated cells. The experiment in a line: Cell cytotoxicity compared to digitonin under Con A stimulation. An excerpt:
Digitonin is a glycoside obtained from Digitalis purpurea, which acts as a detergent, and effectively water-solubilizes lipids in the plasma membrane. Therefore, digitonin can be used to permeabilise cell membranes. The inventors therefore investigated digitonin's cell membrane-permeabilising effects on Con A-stimulated cells to determine the cytotoxic effects of ritodrine or dobutamine.

[3] abbreviates: compound only (no Con A), 10 μM.
The mark [4] stands for this setting: compound only (no Con A), 100 μM.

Read-outs that look alike come from different tables or passages of the source.

As for `CC(CCc1ccc(O)cc1)NCCc1ccc(O)c(O)c1` (stereo not shown) [BC1021, dobutamine], the “Percentage IFN-γ levels compared to 100% untreated cells under LPS stimulation” value with IFN-γ [1] (+ LPS, compound 1 μM, 24 h) was 82.88%; with IFN-γ [1] (+ LPS, compound 10 μM, 24 h), 29.84%; in the data set with IFN-γ [1] (+ LPS, compound 100 μM, 24 h) it was 37.22%; in the data set with IFN-γ [1] (compound only (no LPS), 1 μM), 1.21%; with IFN-γ [1] (compound only (no LPS), 10 μM), −0.33%; in the data set on IFN-γ [1] (compound only (no LPS), 100 μM), −0.99%. Besides, the “concentration of IFN-γ in LPS stimulated cells” value in the data set on IFN-γ [1] was “decreased”. For the same compound, the “Percentage IFN-γ levels compared to 100% untreated cells under Con A stimulation” value with IFN-γ [2] (+ Con A, compound 1 μM, 24 h) is recorded as 63.40%; in the data set on IFN-γ [2] (+ Con A, compound 10 μM, 24 h), 32.77%; in the data set with IFN-γ [2] (+ Con A, compound 100 μM, 24 h), −1.80%; in the data set on IFN-γ [2] (+ Con A, compound 100 μM, 24 h, listed as dobutamine) it was “significant effect in decreasing”; in the data set with IFN-γ [2] (compound only (no Con A), 1 μM) it was −2.61%; in the data set with IFN-γ [2] (setting [3]), −2.51%. For the same compound, the “Percentage IFN-γ levels compared to 100% untreated cells under Con A stimulation” value in the data set with IFN-γ [2] (setting [4]) is given as −3.26%. Besides, the “concentration of IFN-γ in Con A stimulated cells” value in the data set with IFN-γ [2] is on record as “decreased”. In addition, the “Percentage cytotoxicity compared to 100% for digitonin under Con A stimulation” value turned out to be 47.71% with Con A-stimulated cells (compound only (no Con A), 1 μM); 42.94% in the data set on Con A-stimulated cells (setting [3]); 32.33% with Con A-stimulated cells (setting [4]). The “cytotoxicity rates in treated samples” value in the data set on Con A-stimulated cells (text summary of Table 6, vast majority of cases) was “lower”.
In the case of `CC(NCCc1ccc(O)cc1)C(O)c1ccc(O)cc1` (stereo not shown) [BC1023, ritodrine], the “Percentage IFN-γ levels compared to 100% untreated cells under LPS stimulation” value in the data set with IFN-γ [1] (+ LPS, compound 1 μM, 24 h) was determined as 44.79%; with IFN-γ [1] (+ LPS, compound 10 μM, 24 h) it was 51.41%; in the data set with IFN-γ [1] (+ LPS, compound 100 μM, 24 h), 38.74%; in the data set on IFN-γ [1] (compound only (no LPS), 1 μM) it was 1.04%; in the data set on IFN-γ [1] (compound only (no LPS), 10 μM) it was 2.73%; in the data set with IFN-γ [1] (compound only (no LPS), 100 μM) it was 5.46%. Also, in the data set on IFN-γ [1], the “concentration of IFN-γ in LPS stimulated cells” value is listed as “decreased”. Besides, the “Percentage IFN-γ levels compared to 100% untreated cells under Con A stimulation” value with IFN-γ [2] (+ Con A, compound 1 μM, 24 h) is listed as 39.93%; with IFN-γ [2] (+ Con A, compound 10 μM, 24 h) it was 34.25%; with IFN-γ [2] (+ Con A, compound 100 μM, 24 h), 41.69%; in the data set with IFN-γ [2] (compound only (no Con A), 1 μM) it was −0.86%; in the data set with IFN-γ [2] (setting [3]) it was −1.52%; in the data set on IFN-γ [2] (setting [4]), −1.87%. The “concentration of IFN-γ in Con A stimulated cells” value in the data set on IFN-γ [2] is “decreased”. Also, in the data set with Con A-stimulated cells, the “cytotoxicity rates in treated samples” value is listed as “lower”. Moreover, the “Percentage cytotoxicity compared to 100% for digitonin under Con A stimulation” value in the data set with Con A-stimulated cells (human, 1 μM) is reported as 44.54%; with Con A-stimulated cells (human, 10 μM), 43.63%; in the data set with Con A-stimulated cells (human, 100 μM) it was 43.81%.

Values taken from patent US20120283334A1, “Treatment of Viral Infections” (Biocopea, Ltd., priority 2009, published 2012).
